Measured values reported in paper PMC10525445, “Antitrypanosomal Activity of 1,2,3-Triazole-Based Hybrids Evaluated Using In Vitro Preclinical Translational Models” (Biology, 2023).
Where two headings read alike, the source gives them in different places.

Legend:
[1] = tested on: trypomastigote forms of T. cruzi (Dm28c-Luc); assay: Trypanocidal activity against trypomastigotes (luciferase luminescence, 24 h); type: cell-based, Trypanosoma cruzi; conditions: for IC90 / IC50: Trypanosoma cruzi, Dm28c-Luc, 24 h
Description: (§1) A drug screen was carried out with Trypanosoma cruzi clone Dm28c genetically modified to express luciferase (Dm28c-luc), kindly provided by Dr. Cristina Henriques. The genetically modified T. cruzi clone Dm28c (Dm28c-Luc) has the firefly luciferase gene integrated into the genome, stably expressing the luminescent enzyme. The bioluminescent signal, proportional to the number of parasites, is produced by adding a D-luciferin substrate. Trypomastigotes were harvested from supernatants of VERO cell cultures, infected at a ratio of 10:1 parasite/host cells, 4 days post-infection (4 dpi). Parasites were used for phenotypic drug screening procedures. Luminescent parasites are a reliable and sensitive tool that allows precise quantification of parasite load. The use of genetically modified organisms was approved under license CQB 105/99.
All triazole analogs were analyzed for their biological activity against trypomastigote and intracellular amastigote forms of T. cruzi (Dm28c-Luc). Trypomastigotes (1.0 × 10^6 parasites/well) were incubated for 24 h at 37 °C with triazole derivatives and Bz at concentrations ranging from 0.04 to 100 µM. Luciferin (300 µg/mL), a luciferase substrate, was added to parasite suspensions to evaluate trypomastigotes viability. The luminescent signal was measured using a Glomax microplate reader. A maximal DMSO concentration (0.1%) was used as the negative control. The inhibitory concentration 50 (IC50) and 90 (IC90) against T. cruzi, which reduces the number of parasites by 50% and 90%, respectively, was calculated using linear regression. The selectivity index (SI), a ratio that measures the window between toxicity in mammalian cells and anti-T. cruzi activity (SI = CC50/IC50), was also determined.

[2] = tested on: intracellular amastigote forms of T. cruzi (Dm28c-Luc); assay: Activity against intracellular amastigotes in infected VERO cells (72 h); type: cell-based, Trypanosoma cruzi; conditions: for Intracellular Amastigotes SI: SI = CC50 of VERO cells/IC50 of intracellular amastigotes; for IC50 / IC90: Trypanosoma cruzi, infected VERO cells, 72 h, mean ± SD; for IC50: read-out: Trypanocidal Activity Intracellular Amastigotes IC50; for IC90: read-out: Trypanocidal Activity Intracellular Amastigotes IC90
Description: as §1
Activity against intracellular amastigotes was determined in cultures of VERO cells infected by T. cruzi (24 h), as previously described. Briefly, infected cultures were treated for 72 h at 37 °C with different concentrations of triazole derivatives (0.04–100 µM). Then, the culture supernatant was removed, and the viability of the intracellular parasites was evaluated after adding luciferin (300 µg/mL) to the cell monolayer followed by reading using the microplate reader. Anti-T. cruzi activity (IC50 and IC90) and SI values were determined. All experimental assays were performed at least 3 times in duplicate.

[3] = Cytotoxicity on VERO cell monolayers (CellTiter Glo, 72 h); type: cell-based; conditions: African green monkey, VERO cell monolayers, ATP level, read-out: Cytotoxicity VERO Cells CC50
Description: VERO cells (Rio de Janeiro Cell Bank code 0245) were cultivated in RPMI 1640 medium supplemented with 10% fetal bovine serum (FBS) at 37 °C in a humidified atmosphere of 5% CO2. Confluent monolayers were dissociated with trypsin-EDTA solution (0.025%), and isolated cells were seeded on culture plates or flasks, depending on the experimental assay. The VERO cell cultures were used in cytotoxicity and phenotypic screening assays and for obtaining culture-derived trypomastigotes. The toxic effect of the triazole series was evaluated on VERO cell monolayers. After seeding for 24 hours, VERO cells were treated for 72 h at 37 °C with the 1,2,3-triazole derivatives and Bz, the reference drug, with a range of concentration from 15.62 to 500 µM. Controls were performed with a non-toxic concentration of dimethyl sulfoxide (DMSO; ≤0.1%) used in the experimental assays. Cell viability was determined by measuring ATP level using a CellTiter Glo kit. The luminescence read was performed using a Glomax microplate reader (Promega Corporation, Madison, WI, EUA). The cytotoxicity concentration 50 (CC50), the drug concentration that reduces cell viability by 50%, was calculated using linear regression. […] Cultures were exposed for 72 h to compound concentrations up to 500 µM, following the protocol mentioned above. At least 3 independent assays were performed in duplicate.

[4] = tested on: T. cruzi (Dm28c-Luc)-infected VERO cells; assay: Short-term washout assay (3 days treatment, 3 days without compound); type: cell-based, Trypanosoma cruzi; conditions: 100 µM
Description: (§2) A washout assay was performed to evaluate the capacity of the promising candidates to eliminate all parasites. Thus, VERO cells, seeded in 96-well plates at a density of 1.5 × 10^4 cells/well, were infected with T. cruzi (Dm28c-Luc) at a 10:1 parasite–host cell ratio (24 h). Two treatment schedules were performed: 3 days with 30, 50, and 100 µM concentrations and 10 days with 30 and 60 times the IC50 concentrations. After treatment, the cultures were washed with PBS and kept for the same period in RPMI 1640 medium supplemented with 10% FBS without compound pressure. The culture medium was changed every 3 or 4 days during the time course, and the supernatant was harvested for luminescence reading after luciferin (300 µg/mL) addition. At the endpoint, the monolayers were also evaluated for parasite load. The luminescent signal was read using a Glomax reader. Bz (100 µM) and DMSO (≤1%) were used as positive and negative controls, respectively.

[5] = tested on: T. cruzi (Dm28c-Luc)-infected VERO cells; assay: Long-term washout assay (10 days treatment, 10 days without compound); type: cell-based, Trypanosoma cruzi; conditions: 10 days treatment (30 or 60 times IC50; Bz 100 µM) + 10 days without compound
Description: as §2

[6] = tested on: VERO cells infected with Silvio X10/7; design: method as in PMID 30001347; conditions: cited from earlier work
[7] = mean ± SD, read-out: Trypanocidal Activity Trypomastigotes IC50

SMILES	IC90 ([1]; mean ± SD)	IC50 [1, 7]	IC50 [2]	CC50 at 72 h [3]	other results
O=C(Cn1ccnc1[N+](=O)[O-])NCc1ccccc1 [Bz, benznidazole, reference compound]	> 100 µM	22.8 ± 4.12 µM	4.67 ± 0.22 µM	> 500 µM	IC50 ([1]; read-out: pIC50 against trypomastigotes (converted)): 22.9 µM; Intracellular Amastigotes SI [2]: >107; IC90 [2]: 21.7 ± 2.37 µM; effect on parasite load / infection progression [4]: potentially inhibited the infection progression; infection reactivation / sterile cure [5]: failed to induce a sterile cure; relapse ([6]; 12.5 to 50 times EC50 for 8 days): did not prevent relapse; recrudescence ([6]; 16 days of treatment with 25 to 50 times EC50, followed for 60 days): lack of recrudescence
Cc1ccccc1-n1cc(C(C)(C)O)nn1 [Triazole 1a, 2-(1-(o-Tolyl)-1H-1,2,3-triazole-4-yl)propan-2-ol]	> 100 µM	> 100 µM	> 100 µM	> 500 µM	
Clc1ccc(-n2cc(-c3ccccc3)nn2)cc1 [Triazole 1b, 1-(4-Chlorophenyl)-4-phenyl-1H-1,2,3-triazole]	> 100 µM	> 100 µM	> 100 µM	> 500 µM	
Brc1ccc(-n2cc(-c3ccccc3)nn2)cc1 [Triazole 1c, 1-(4-Bromophenyl)-4-phenyl-1H-1,2,3-triazole]	> 100 µM	> 100 µM	> 100 µM	> 500 µM	
c1ccc(Cn2cc(-c3ccccc3)nn2)cc1 [Triazole 1e, 1-Benzyl-4-phenyl-1H-1,2,3-triazole]	> 100 µM	> 100 µM	83.2 ± 2.27 µM	> 500 µM	Intracellular Amastigotes SI [2]: >6
OC1(c2cn(-c3ccccc3)nn2)CCCCC1 [Triazole 1h, 1-(1-Phenyl-1H-1,2,3-triazole-4-yl)cyclohexan-1-ol]		> 100 µM	> 100 µM	> 500 µM	
O=[N+]([O-])c1ccc(-n2cc(C3(O)CCCCC3)nn2)cc1 [Triazole 1i, 1-(1-(4-Nitrophenyl)-1H-1,2,3-triazole-4-yl)cyclohexan-1-ol]		> 100 µM	> 100 µM	> 500 µM	
COc1ccc(-n2cc(C3(O)CCCCC3)nn2)cc1 [Triazole 1j, 1-(1-(4-Methoxyphenyl)-1H-1,2,3-triazole-4-yl)cyclohexan-1-ol]		> 100 µM	> 100 µM	> 500 µM	
Cc1ccccc1-n1cc(C2(O)CCCCC2)nn1 [Triazole 1k, 1-(1-(o-Tolyl)-1H-1,2,3-triazole-4-yl)cyclohexan-1-ol]		> 100 µM	> 100 µM	> 500 µM	melting point: 201 to 203 °C
O=C(OCc1cn(-c2ccccc2Cl)nn1)c1ccccc1 [Triazole 1l, (1-(2-Chlorophenyl)-1H-1,2,3-triazole-4-yl)methyl benzoate]	> 100 µM	80.4 ± 3.56 µM	77.9 ± 2 µM	236 ± 17.9 µM	Trypomastigotes SI ([1]; SI = CC50 of VERO cells/IC50 of trypomastigotes): 2.94; Intracellular Amastigotes SI [2]: 3.03; IC90 [2]: > 100 µM
Cc1ccccc1-n1cc(COC(=O)c2ccccc2)nn1 [Triazole 1m, (1-(o-Tolyl)-1H-1,2,3-triazole-4-yl)methyl benzoate]		> 100 µM	> 100 µM	> 500 µM	
COc1ccc(-n2cc(CO)nn2)cc1 [Triazole 1n, (1-(4-Methoxyphenyl)-1H-1,2,3-triazole-4-yl)methanol]		> 100 µM	> 100 µM	> 500 µM	
